This test can be described thus: cytotoxicity of LYPLA inhibitor compounds, late-stage follow-up, cytotoxicity control for LYPLA1/LYPLA2 inhibitor project, cell-based, absorbance readout, serum-free and serum-supplemented medium (AID 743127). As to conditions: cell viability, serum-free or serum medium.

The source made the active and inactive calls. The rule behind the calls is not given here.

For `O=C(ON1C(=O)C2CN(C(=O)N3CCCCC3)CCN2C1=O)N1CCC(CCc2ccc(Cl)cc2)CC1` (centres undefined), the CC50 (in general, the concentration that lowers cell viability or growth by half) is > 10 µM (inactive) (in serum-free medium) and > 10 µM (inactive) (in serum-supplemented medium).
Regarding `O=C(ON1C(=O)C2CN(C(=O)N3CCOCC3)CCN2C1=O)N1CCC(CCc2ccc(Cl)cc2)CC1` (centres undefined), the CC50 (in serum-free medium) was > 100 µM (inactive) and the CC50 (in serum-supplemented medium) is 100 µM (inactive).

For the origin of these results see PubChem BioAssay AID743127 (The Scripps Research Institute Molecular Screening Center, 2013).
